The results in this text go back to US20250188082A1, “Use of Hypoxanthine Compound In Preparation of Drug For Treating Pulmonary Fibrosis” (Sichuan Yiasuo Pharmaceutical Technology Co., Ltd., priority 2022, published 2025).

Holding throughout (format): in vivo, C57BL/6 mice
For assay [1], the system named is bleomycin-induced pulmonary fibrosis model. Description: Early pulmonary fibrosis: bleomycin-induced model, dosing from one week after modelling. As to conditions: early pulmonary fibrosis, 120 mg/kg/d intragastric, 14 days, from one week after model; for Leucocyte / Lymphocyte / Neutrophil: blood, Day 15, twice every day; for Ashcroft scores: lung tissue HE staining.

Assay [2] shares this test system. Description: Comparison with comparative drugs: bleomycin-induced model, hydroxyproline and TGF-β. As to conditions: 120 mg/kg/d intragastric, twice every day, 14 days, from two weeks after model; Day 15.
In assay [3] the test system is influenza B virus-induced pulmonary fibrosis model (influenza B (H7N9) virus). Conditions: 120 mg/kg/d intragastric, 14 days; for Ashcroft scores: influenza B virus + bleomycin, lung tissue HE; for IL-1β / NF-κB / TNF-α / IL-6: serum, from two weeks after model; for IL-1β / NF-κB / TNF-α: influenza B (H7N9) + bleomycin; for IL-6: influenza B + bleomycin.
Assay [4] relates to coronavirus-induced pulmonary fibrosis model (HcoV-OC43). As to the kind of experiment: Coronavirus-induced pulmonary fibrosis model. As to conditions: 120 mg/kg/d intragastric, 14 days; for Ashcroft scores: coronavirus HcoV-OC43 + bleomycin, lung tissue HE; for IL-1β / IL-6 / NF-κB / TNF-α: serum, HcoV-OC43 + bleomycin, from two weeks after model. The source says:
Experimental method: an in-vivo coronavirus-induced pulmonary fibrosis model mice was established: C57BL/6 mice (with weights being 22-25 g) were randomly and evenly divided into a plurality of groups, including blank control group, model group, Nintedanib positive control group, hypoxanthine analogue A group, hypoxanthine analogue B group, hypoxanthine analogue C group, compound 1 group, compound 2 group . . . compound 12 group, with 9 mice in each group. On Day 1, the mice in the blank control group were instilled with normal saline nasally, and the mice in other groups were all infected with HcoV-OC43 coronavirus strains (30 μL) through nasal instillation. On Day 2, the mice received 5 mg/kg bleomycin through tracheas to induce their pulmonary fibrosis. After the model was established for two weeks, the mice in each group were intragastrically administrated for intervention for consecutive 14 days; the mice in blank control group and model group intragastrically received the same dosage of the normal saline as those in drug groups; the mice in Nintedanib positive control group received Nintedanib (120 mg/kg); the mice in hypoxanthine analogue A group, hypoxanthine analogue B group and hypoxanthine analogue C group respectively received hypoxanthine analogue A (120 mg/kg/d), hypoxanthine analogue B (120 mg/kg/d) and hypoxanthine analogue C (120 mg/kg/d); and the mice in compound 1 group, compound 2 group . . . compound 12 group respectively received compound 1 (120 mg/kg/d), compound 2 (120 mg/kg/d) . . . compound 12 (120 mg/kg/d) prepared in example 1. After administration for consecutive 14 days, the mice were observed every day, and their weights and death conditions were recorded. After administration, blood was taken from eyeballs for immediately detecting the expression levels of NF-κB, TNF-α, IL-1 and IL-6 in serum, and lung tissues were taken for HE detection and Ashcroft scoring.

For assay [5], the system named is novel coronavirus-induced pulmonary fibrosis model (COVID-19 novel coronavirus strains). Description: Novel coronavirus-induced pulmonary fibrosis model. Conditions: 120 mg/kg/d intragastric, 14 days; for Ashcroft scores: novel coronavirus + bleomycin, lung tissue HE; for IL-1β / IL-6 / NF-κB / TNF-α: serum, COVID-19 novel coronavirus + bleomycin, from two weeks after model. The source says:
Experimental method: an in-vivo novel coronavirus-induced pulmonary fibrosis model was established: C57BL/6 mice (with weights being 22-25 g) were randomly and evenly divided into a plurality of groups, including blank control group, model group, Nintedanib positive control group, hypoxanthine analogue A group, hypoxanthine analogue B group, hypoxanthine analogue C group, compound 1 group, a compound 2 group . . . compound 12 group, with 9 mice in each group. On Day 1, the mice in blank control group were instilled with normal saline nasally, and the mice in other groups were all infected with COVID-19 novel coronavirus strains (30 μL) through nasal instillation. On Day 2, the mice received 5 mg/kg bleomycin through tracheas to induce their pulmonary fibrosis. After the model was established for two weeks, the mice in each group were intragastrically administrated for intervention for consecutive 14 days; the mice in blank control group and model group intragastrically received the same dosage of normal saline as those in drug groups; the mice in Nintedanib positive control group received Nintedanib (120 mg/kg); the mice in hypoxanthine analogue A group, hypoxanthine analogue B group and hypoxanthine analogue C group respectively received hypoxanthine analogue A (120 mg/kg/d), hypoxanthine analogue B (120 mg/kg/d) and hypoxanthine analogue C (120 mg/kg/d); and the mice in compound 1 group, compound 2 group . . . compound 12 group respectively received compound 1 (120 mg/kg/d), compound 2 (120 mg/kg/d) . . . compound 12 (120 mg/kg/d) prepared in example 1. After administration for consecutive 14 days, the mice were observed every day, and their weights and death conditions were recorded. After administration, blood was taken from eyeballs for immediately detecting the expression levels of NF-κB, TNF-α, IL-1 and IL-6 in serum, and lung tissues were taken for HE detection and Ashcroft scoring.

Regarding `CC(C)Oc1ncnc2[nH]cnc12` [Compound 1], in assay [1], the Leucocyte is 4.15 10^9/L, the Lymphocyte is recorded as 5.42 10^9/L, the Neutrophil is recorded as 1.11 10^9/L and the Ashcroft scores is listed as 0.99. Moreover, in assay [2], the “Hydroxyproline in bronchoalveolar lavage fluids” value was 0.75 ± 0.04 µg/mg, the “Hydroxyproline in lung tissues” value is 1.45 ± 0.09 µg/mg, the “TGF-β in bronchoalveolar lavage fluids” value turned out to be 4.05 ± 0.15 µg/L and the “TGF-β in lung tissues” value was 24.15 ± 1.21 µg/L. In assay [3], the Ashcroft scores was 1.19, the IL-1β amounted to 26.3 pg/mL, the NF-κB is recorded as 30.5 pg/mL and the TNF-α amounted to 72.9 pg/mL. Besides, in assay [3], the IL-6 was 65.1 pg/mL. Moreover, in assay [4], the Ashcroft scores came out at 1.18, the IL-1β was 31.8 pg/mL, the IL-6 came to 62.7 pg/mL and the NF-κB was found to be 23.9 pg/mL. The TNF-α in assay [4] amounted to 51.8 pg/mL. Further, in assay [5], the Ashcroft scores was 1.08, the IL-1β was found to be 36.4 pg/mL, the IL-6 stood at 68.3 pg/mL and the NF-κB is listed as 26.6 pg/mL. Besides, the TNF-α in assay [5] worked out at 63.3 pg/mL.

As for `CC(C)n1cnc2c(=O)[nH]cnc21` [Compound 2], in assay [1], the Leucocyte is listed as 4.11 10^9/L, the Lymphocyte was 5.19 10^9/L, the Neutrophil was 1.04 10^9/L and the Ashcroft scores was 1.01. In assay [2], the “Hydroxyproline in bronchoalveolar lavage fluids” value turned out to be 0.74 ± 0.05 µg/mg, the “Hydroxyproline in lung tissues” value came to 1.51 ± 0.08 µg/mg, the “TGF-β in bronchoalveolar lavage fluids” value was found to be 4.02 ± 0.15 µg/L and the “TGF-β in lung tissues” value worked out at 24.10 ± 2.14 µg/L. In addition, in assay [3], the Ashcroft scores is recorded as 1.09, the IL-1β was found to be 26.6 pg/mL, the NF-κB was 29.5 pg/mL and the TNF-α is 72.6 pg/mL. For the same compound, the IL-6 in assay [3] is recorded as 65.4 pg/mL. Moreover, in assay [4], the Ashcroft scores stood at 1.16, the IL-1β amounted to 32.0 pg/mL, the IL-6 is given as 62.6 pg/mL and the NF-κB is on record as 24.6 pg/mL. The TNF-α in assay [4] was 51.2 pg/mL. For the same compound, in assay [5], the Ashcroft scores came out at 1.12, the IL-1β is given as 35.1 pg/mL, the IL-6 is on record as 66.0 pg/mL and the NF-κB turned out to be 23.5 pg/mL. Moreover, the TNF-α in assay [5] turned out to be 64.8 pg/mL.

In the case of `CC(C)Oc1ncnc2c1ncn2C(C)C` [Compound 3], in assay [1], the Leucocyte was 4.01 10^9/L, the Lymphocyte is recorded as 4.99 10^9/L, the Neutrophil is recorded as 0.96 10^9/L and the Ashcroft scores amounted to 0.92. Besides, in assay [2], the “Hydroxyproline in bronchoalveolar lavage fluids” value is 0.70 ± 0.05 µg/mg, the “Hydroxyproline in lung tissues” value stood at 1.31 ± 0.07 µg/mg, the “TGF-β in bronchoalveolar lavage fluids” value came out at 3.95 ± 0.19 µg/L and the “TGF-β in lung tissues” value was 24.15 ± 2.04 µg/L. Also, in assay [3], the Ashcroft scores came to 0.98, the IL-1β is 25.8 pg/mL, the NF-κB turned out to be 28.8 pg/mL and the TNF-α turned out to be 71.8 pg/mL. Further, in assay [3], the IL-6 was determined as 64.1 pg/mL. Further, in assay [4], the Ashcroft scores is reported as 1.03, the IL-1β amounted to 31.3 pg/mL, the IL-6 was found to be 61.7 pg/mL and the NF-κB is 23.7 pg/mL. Further, the TNF-α in assay [4] turned out to be 49.9 pg/mL. In addition, in assay [5], the Ashcroft scores came out at 1.19, the IL-1β is on record as 36.3 pg/mL, the IL-6 is 65.3 pg/mL and the NF-κB was 24.7 pg/mL. Further, the TNF-α in assay [5] is reported as 63.5 pg/mL.

In the case of `CC(C)Oc1ncnc2ncn(C(C)C)c12` [Compound 4], in assay [1], the Leucocyte was 4.29 10^9/L, the Lymphocyte is 5.56 10^9/L, the Neutrophil is 1.31 10^9/L and the Ashcroft scores is 1.18. Besides, in assay [2], the “Hydroxyproline in bronchoalveolar lavage fluids” value came out at 0.71 ± 0.08 µg/mg, the “Hydroxyproline in lung tissues” value turned out to be 1.29 ± 0.08 µg/mg, the “TGF-β in bronchoalveolar lavage fluids” value came to 3.95 ± 0.14 µg/L and the “TGF-β in lung tissues” value worked out at 24.58 ± 1.95 µg/L. Moreover, in assay [3], the Ashcroft scores is on record as 1.17, the IL-1β stood at 27.6 pg/mL, the NF-κB is on record as 29.3 pg/mL and the TNF-α came to 73.9 pg/mL. Besides, the IL-6 in assay [3] is listed as 66.7 pg/mL. Further, in assay [4], the Ashcroft scores was 1.39, the IL-1β was found to be 35.5 pg/mL, the IL-6 is 63.9 pg/mL and the NF-κB was 26.7 pg/mL. Besides, the TNF-α in assay [4] is given as 52.9 pg/mL. Further, in assay [5], the Ashcroft scores turned out to be 1.50, the IL-1β was 37.2 pg/mL, the IL-6 turned out to be 64.5 pg/mL and the NF-κB was 25.2 pg/mL. Besides, in assay [5], the TNF-α is given as 65.9 pg/mL.

Consider `CC(C)Oc1ncnc2nc[nH]c12` [Compound 5], for which, in assay [1], the Leucocyte was 4.23 10^9/L, the Lymphocyte is listed as 5.60 10^9/L, the Neutrophil is reported as 1.26 10^9/L and the Ashcroft scores stood at 1.22. For the same compound, in assay [2], the “Hydroxyproline in bronchoalveolar lavage fluids” value turned out to be 0.69 ± 0.09 µg/mg, the “Hydroxyproline in lung tissues” value stood at 1.43 ± 0.07 µg/mg, the “TGF-β in bronchoalveolar lavage fluids” value stood at 3.93 ± 0.18 µg/L and the “TGF-β in lung tissues” value turned out to be 24.18 ± 1.65 µg/L. For the same compound, in assay [3], the Ashcroft scores is 1.18, the IL-1β is recorded as 28.1 pg/mL, the NF-κB turned out to be 31.4 pg/mL and the TNF-α turned out to be 76.6 pg/mL. The IL-6 in assay [3] worked out at 66.9 pg/mL. In addition, in assay [4], the Ashcroft scores is recorded as 1.31, the IL-1β was 37.1 pg/mL, the IL-6 was 64.9 pg/mL and the NF-κB was 25.9 pg/mL. For the same compound, the TNF-α in assay [4] is given as 52.6 pg/mL. Also, in assay [5], the Ashcroft scores came to 1.11, the IL-1β is 37.5 pg/mL, the IL-6 was found to be 66.4 pg/mL and the NF-κB was found to be 24.3 pg/mL. Also, in assay [5], the TNF-α was 66.1 pg/mL.
